In ChEMBL document CHEMBL1154784, “Discovery of potential ZAP-70 kinase inhibitors: pharmacophore design, database screening and docking studies” (Eur J Med Chem, 2009):

Biological target: T1, Tyrosine-protein kinase ZAP-70 (Homo sapiens, UniProt P43403)
T1 sequence (P43403 whole entry): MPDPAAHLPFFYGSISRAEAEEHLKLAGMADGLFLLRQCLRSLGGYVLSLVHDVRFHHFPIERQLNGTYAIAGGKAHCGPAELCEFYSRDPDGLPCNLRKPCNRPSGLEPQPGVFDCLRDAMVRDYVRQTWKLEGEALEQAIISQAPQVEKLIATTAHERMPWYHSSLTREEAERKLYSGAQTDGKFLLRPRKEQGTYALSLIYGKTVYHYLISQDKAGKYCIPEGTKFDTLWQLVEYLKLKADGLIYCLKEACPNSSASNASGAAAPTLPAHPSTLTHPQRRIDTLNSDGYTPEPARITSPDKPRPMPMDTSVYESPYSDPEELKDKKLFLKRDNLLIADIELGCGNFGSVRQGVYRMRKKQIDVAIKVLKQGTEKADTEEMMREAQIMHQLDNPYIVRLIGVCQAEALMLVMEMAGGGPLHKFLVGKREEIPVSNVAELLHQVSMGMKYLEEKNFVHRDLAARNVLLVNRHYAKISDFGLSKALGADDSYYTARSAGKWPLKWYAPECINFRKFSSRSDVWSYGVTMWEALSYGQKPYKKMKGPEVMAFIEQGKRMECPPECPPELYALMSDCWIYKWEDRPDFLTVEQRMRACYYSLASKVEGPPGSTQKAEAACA
Assay: Inhibition of human GST-fused ZAP-70 expressed in Sf9 cells

| Structure (SMILES) | IC50 [µM] |
| --- | --- |
| Cc1c(CCC(=O)O)c[nH]c1/C=C1\C(=O)Nc2ccccc21 | 25 |
| Cc1[nH]c(/C=C2\C(=O)Nc3ccccc32)c(C)c1CCC(=O)O [ORANTINIB] | 28.4 |
